Key:
[1] = tested on: polyclonal sera raised against 4-phosphopyrazol-1-yl alanine; experiment: Dot blot of BSA-glutaraldehyde conjugated analogues with affinity depleted rabbit and rat sera; assay type: binding; settings: BSA-glutaraldehyde conjugated analogue; rabbit and rat sera affinity depleted with histidine-KLH
Procedure: Solutions of the BSA-amino acid conjugates of histidine, tele-phosphohistidine, and the analogues, were first diluted 1000 fold. These solutions as well as the commercially available solutions of BSA conjugated to phosphoserine, phosphothreonine, and phosphotyrosine were spotted (2 μL) onto a PVDF membrane. Once the spots were dry, the membrane was rinsed with methanol before being blocked in 5% non-fat dry milk in 10 mM Tris-HCl pH 8.0, 17 mM NaCl (TBS), Tween (0.05%) (5% NFDM/TBST) for 1 hour and then incubated with the rat sera raised against the analogue of interest at 1/1000 dilution in 5% NFDM/TBST overnight at 4° C. The membrane was then washed using TBS-Tween (0.05%) 3 times for 15 minutes, before being incubated with a 1/2000 fold dilution of goat anti-rat IgG-HRP conjugate in 5% NFDM/TBST for 60 minutes at room temperature. Membranes were then washed 3 times for 15 minutes using TBS-Tween (0.05%) and then treated with SuperSignal West Dura Chemiluminescent Substrate for 3 minutes. […]
In addition, further antibodies against 4-phosphopyrazol-1-yl alanine were raised as described in sections 2.1.1 to 2.1.4 above, and dot blot analysis conducted as described in section 2.5. […] The data establishes that 4-phosphopyrazol-1-yl alanine amide and 4-phosphothiazol-1-yl alanine amide are detected by the polyclonal sera raised against 4-phosphopyrazol-1-yl alanine.

Structure (SMILES)	melting point	detection by polyclonal sera raised against 4-phosphopyrazol-1-yl alanine (dot blot) [1]
C[C@H](N[SH]1C=NC(P(=O)(O)O)=C1)C(N)=O (some centres unmarked) [4-phosphothiazol-1-yl alanine amide]		detected
N[C@@H](Cc1ccc(P(=O)(O)O)cn1)C(=O)O [Compound 6]	270 °C	
N[C@@H](Cn1cc(P(=O)(O)O)cn1)C(=O)O [Compound 12]	200 °C	

The next lines start with results.

melting point	Structure (SMILES)	detection by polyclonal sera raised against 4-phosphopyrazol-1-yl alanine (dot blot) [1]
260 °C	N[C@@H](Cc1cc(P(=O)(O)O)cs1)C(=O)O [Compound 17]	
196 to 199 °C (dec.)	N[C@@H](Cc1ncc(P(=O)(O)O)s1)C(=O)O [Compound 20, (S)-2-Amino-3-(5-phosphoryl-1,3-thiazol-2-yl)propanoic acid]	

— US10053476B2, “Phosphohistidine and phosphotyrosine analogues” (UNIVERSITY OF SHEFFIELD, priority 2013, dated 2018)
